According to BindingDB's records for patent US20240182487 (Blossomhill Therapeutics, 2024):

Key:
Experiment in all cases: Biochemical Assay
[1] = biological target: Epidermal growth factor receptor [L858R] (Homo sapiens, UniProt P00533, L858R)
Method: (§1) Biochemical Assays for Inhibition of Wild-Type and Mutant EGFRs.The inhibitory activities against EGFR WT, EGFR Δ752-759 mutant, EGFR Δ746-750/T790M mutant, EGFR Δ746-750/C797S mutant, EGFR Δ746-750/T790M/C797S mutant. […] Briefly, specific kinase/substrate pairs along with required cofactors were prepared in reaction buffer; 20 mM Hepes pH 7.5, 10 mM MgCl2, 1 mM EGTA, 0.02% Brij35, 0.02 mg/ml BSA, 0.1 mM Na3VO4, 2 mM DTT, 1% DMSO. Compounds were delivered into the reaction, followed 20 minutes later by addition of a mixture of ATP (Sigma, St. Louis MO) and 33P ATP (Perkin Elmer, Waltham MA) to a final concentration of 10 μM. Reactions were carried out at room temperature for 120 min, followed by spotting of the reactions onto P81 ion exchange filter paper (Whatman Inc., Piscataway, NJ). Unbound phosphate was removed by extensive washing of filters in 0.75% phosphoric acid.

[2] = biological target: Epidermal growth factor receptor (Homo sapiens, UniProt P00533)
Method: as §1

[3] = biological target: Epidermal growth factor receptor [L858R,C797S] (Human, UniProt P00533, C797S/L858R)
Method: as §1

[4] = biological target: Epidermal growth factor receptor [T790M,L858R] (Homo sapiens, UniProt P00533, L858R/T790M)
Method: as §1

[5] = biological target: Epidermal growth factor receptor [L858R,T790M,C797S] (Homo sapiens, UniProt P00533, C797S/L858R/T790M)
Method: as §1

Epidermal growth factor receptor [L858R,C797S], sequence (P00533 25-1210 C797S/L858R limits assumed): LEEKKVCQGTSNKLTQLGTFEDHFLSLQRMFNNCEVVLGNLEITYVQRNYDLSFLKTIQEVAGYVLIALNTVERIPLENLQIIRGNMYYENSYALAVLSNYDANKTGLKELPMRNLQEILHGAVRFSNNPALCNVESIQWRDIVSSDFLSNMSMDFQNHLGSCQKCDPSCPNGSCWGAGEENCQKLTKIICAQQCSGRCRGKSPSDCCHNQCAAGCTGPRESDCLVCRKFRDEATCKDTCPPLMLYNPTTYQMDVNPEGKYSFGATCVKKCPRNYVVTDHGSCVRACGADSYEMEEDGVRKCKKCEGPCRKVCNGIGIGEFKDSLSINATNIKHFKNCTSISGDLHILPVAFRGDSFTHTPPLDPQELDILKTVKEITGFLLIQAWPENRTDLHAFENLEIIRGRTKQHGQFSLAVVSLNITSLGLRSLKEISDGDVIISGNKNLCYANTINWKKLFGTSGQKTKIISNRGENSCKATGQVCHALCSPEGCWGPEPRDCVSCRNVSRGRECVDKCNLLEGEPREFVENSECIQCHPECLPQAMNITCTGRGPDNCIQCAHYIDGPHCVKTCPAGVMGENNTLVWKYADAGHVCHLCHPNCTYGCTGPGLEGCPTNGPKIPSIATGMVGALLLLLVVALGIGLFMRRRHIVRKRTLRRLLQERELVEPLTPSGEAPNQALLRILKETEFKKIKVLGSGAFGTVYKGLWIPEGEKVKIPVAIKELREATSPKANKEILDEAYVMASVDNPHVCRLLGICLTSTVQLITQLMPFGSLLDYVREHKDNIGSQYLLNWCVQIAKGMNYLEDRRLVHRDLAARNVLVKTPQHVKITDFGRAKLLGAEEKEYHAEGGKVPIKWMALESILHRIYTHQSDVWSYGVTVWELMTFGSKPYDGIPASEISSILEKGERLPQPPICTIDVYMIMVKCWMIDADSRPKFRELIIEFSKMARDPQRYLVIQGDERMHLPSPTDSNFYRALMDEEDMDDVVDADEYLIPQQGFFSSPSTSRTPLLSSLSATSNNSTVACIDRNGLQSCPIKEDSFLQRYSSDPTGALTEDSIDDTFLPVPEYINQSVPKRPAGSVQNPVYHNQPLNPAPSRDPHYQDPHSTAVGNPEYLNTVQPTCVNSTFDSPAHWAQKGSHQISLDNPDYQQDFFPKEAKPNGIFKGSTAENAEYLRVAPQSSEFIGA
Epidermal growth factor receptor [L858R], sequence (P00533 25-1210 L858R limits assumed): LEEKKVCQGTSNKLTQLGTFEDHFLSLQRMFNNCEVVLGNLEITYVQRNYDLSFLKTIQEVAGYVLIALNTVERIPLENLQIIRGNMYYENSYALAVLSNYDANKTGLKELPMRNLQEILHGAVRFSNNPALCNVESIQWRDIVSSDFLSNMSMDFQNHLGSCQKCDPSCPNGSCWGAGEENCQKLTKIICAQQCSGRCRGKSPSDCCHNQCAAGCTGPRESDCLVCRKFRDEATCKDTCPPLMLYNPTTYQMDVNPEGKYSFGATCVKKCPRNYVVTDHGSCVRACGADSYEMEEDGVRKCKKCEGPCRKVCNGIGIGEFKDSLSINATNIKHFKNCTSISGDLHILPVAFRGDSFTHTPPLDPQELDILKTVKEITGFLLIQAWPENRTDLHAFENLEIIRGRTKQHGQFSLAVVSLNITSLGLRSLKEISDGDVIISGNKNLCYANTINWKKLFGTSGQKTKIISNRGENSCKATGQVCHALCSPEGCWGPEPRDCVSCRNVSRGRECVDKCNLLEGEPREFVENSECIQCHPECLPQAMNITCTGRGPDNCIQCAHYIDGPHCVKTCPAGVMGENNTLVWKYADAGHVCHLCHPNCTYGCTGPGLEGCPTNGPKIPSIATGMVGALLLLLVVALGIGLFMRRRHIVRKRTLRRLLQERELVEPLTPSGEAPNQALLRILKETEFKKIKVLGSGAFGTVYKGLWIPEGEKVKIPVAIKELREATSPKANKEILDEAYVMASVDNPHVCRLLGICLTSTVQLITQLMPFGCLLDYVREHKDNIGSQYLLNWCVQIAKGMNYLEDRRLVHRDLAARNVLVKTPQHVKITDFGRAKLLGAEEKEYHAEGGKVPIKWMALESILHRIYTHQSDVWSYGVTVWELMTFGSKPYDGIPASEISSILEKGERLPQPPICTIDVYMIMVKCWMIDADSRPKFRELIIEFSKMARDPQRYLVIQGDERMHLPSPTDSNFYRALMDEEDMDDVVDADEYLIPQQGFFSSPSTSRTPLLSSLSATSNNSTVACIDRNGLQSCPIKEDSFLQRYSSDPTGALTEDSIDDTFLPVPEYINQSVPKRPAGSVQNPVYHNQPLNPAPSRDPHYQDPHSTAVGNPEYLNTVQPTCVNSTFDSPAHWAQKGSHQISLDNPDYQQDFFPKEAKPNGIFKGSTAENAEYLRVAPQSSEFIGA
Epidermal growth factor receptor [L858R,T790M,C797S], sequence (P00533 25-1210 T790M/C797S/L858R limits assumed): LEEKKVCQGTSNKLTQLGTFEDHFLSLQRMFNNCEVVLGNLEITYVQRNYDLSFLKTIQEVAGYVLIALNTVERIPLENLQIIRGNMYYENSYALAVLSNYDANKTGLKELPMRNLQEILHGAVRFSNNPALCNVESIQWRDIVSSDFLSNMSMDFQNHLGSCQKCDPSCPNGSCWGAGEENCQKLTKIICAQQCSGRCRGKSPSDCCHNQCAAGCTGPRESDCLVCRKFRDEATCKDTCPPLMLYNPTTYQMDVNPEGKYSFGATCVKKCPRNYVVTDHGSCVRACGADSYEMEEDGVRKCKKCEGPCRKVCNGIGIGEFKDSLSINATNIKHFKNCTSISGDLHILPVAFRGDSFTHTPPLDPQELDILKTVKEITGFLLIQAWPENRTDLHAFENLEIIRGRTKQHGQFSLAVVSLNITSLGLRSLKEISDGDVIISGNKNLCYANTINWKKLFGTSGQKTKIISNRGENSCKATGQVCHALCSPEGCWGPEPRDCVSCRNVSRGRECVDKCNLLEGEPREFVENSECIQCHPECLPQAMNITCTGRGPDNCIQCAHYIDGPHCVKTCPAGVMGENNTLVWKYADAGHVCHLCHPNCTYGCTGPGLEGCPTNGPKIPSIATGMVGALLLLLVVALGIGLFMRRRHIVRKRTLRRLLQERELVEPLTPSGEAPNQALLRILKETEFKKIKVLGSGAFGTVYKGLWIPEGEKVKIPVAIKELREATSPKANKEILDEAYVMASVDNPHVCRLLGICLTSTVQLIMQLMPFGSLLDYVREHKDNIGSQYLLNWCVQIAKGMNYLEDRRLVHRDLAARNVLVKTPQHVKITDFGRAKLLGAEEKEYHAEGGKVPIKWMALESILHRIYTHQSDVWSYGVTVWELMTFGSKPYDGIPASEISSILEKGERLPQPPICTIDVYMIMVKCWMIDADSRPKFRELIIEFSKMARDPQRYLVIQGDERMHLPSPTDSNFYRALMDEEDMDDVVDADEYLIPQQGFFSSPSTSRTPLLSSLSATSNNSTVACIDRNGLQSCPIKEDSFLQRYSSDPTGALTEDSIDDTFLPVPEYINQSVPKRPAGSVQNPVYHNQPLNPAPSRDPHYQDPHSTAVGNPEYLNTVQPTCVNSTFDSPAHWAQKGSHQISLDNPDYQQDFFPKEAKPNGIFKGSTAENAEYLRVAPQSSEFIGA
Epidermal growth factor receptor, sequence (P00533 whole entry): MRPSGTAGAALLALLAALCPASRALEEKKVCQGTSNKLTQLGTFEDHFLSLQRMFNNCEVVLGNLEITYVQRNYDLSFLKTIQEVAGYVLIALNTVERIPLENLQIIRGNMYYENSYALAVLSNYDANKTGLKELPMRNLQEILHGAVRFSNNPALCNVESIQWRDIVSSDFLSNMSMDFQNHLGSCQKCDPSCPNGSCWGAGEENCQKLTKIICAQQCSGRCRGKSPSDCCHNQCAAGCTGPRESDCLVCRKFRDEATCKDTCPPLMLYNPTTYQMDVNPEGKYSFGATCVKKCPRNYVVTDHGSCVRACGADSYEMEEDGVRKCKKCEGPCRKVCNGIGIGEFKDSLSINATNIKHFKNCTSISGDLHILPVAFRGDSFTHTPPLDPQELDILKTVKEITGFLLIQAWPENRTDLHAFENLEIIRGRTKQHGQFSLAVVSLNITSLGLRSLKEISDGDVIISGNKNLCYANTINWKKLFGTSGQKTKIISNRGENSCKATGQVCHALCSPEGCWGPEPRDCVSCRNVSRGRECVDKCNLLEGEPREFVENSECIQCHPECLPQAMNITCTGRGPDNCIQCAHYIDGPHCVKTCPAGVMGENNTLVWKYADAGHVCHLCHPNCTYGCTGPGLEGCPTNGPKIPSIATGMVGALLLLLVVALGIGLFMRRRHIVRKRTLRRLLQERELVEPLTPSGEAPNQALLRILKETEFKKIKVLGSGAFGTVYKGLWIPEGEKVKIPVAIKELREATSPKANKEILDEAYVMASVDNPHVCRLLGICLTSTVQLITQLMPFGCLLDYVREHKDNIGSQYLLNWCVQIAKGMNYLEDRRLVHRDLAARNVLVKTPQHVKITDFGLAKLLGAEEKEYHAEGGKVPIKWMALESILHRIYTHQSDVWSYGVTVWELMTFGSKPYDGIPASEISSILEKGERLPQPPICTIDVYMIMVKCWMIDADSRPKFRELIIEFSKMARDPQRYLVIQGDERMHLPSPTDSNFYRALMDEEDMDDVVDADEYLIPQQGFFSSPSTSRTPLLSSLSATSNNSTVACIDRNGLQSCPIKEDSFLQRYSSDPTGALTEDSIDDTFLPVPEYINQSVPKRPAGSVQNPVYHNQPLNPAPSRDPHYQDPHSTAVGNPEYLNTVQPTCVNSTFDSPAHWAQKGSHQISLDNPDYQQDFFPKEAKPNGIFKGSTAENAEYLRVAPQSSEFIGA

| IC50 [1] | IC50 [2] | IC50 [3] | IC50 [4] | IC50 [5] | SMILES |
| --- | --- | --- | --- | --- | --- |
| 0.35 µM | 0.551 µM | 0.481 µM | 0.168 µM | 0.263 µM | Cn1ncc2c1COCCOc1ccccc1/C=C/c1n[nH]c3cnc-2nc13 [US20240182487, Compound 16] |
| – | – | – | – | 1.13 µM | CCc1c2c(nn1C)C(=O)N(C)CCOc1c[nH]c(=O)cc1-c1cc3c(n[nH]c3cn1)/C=C/2 [US20240182487, Compound 38] |
| 0.136 µM | 0.306 µM | 0.104 µM | 0.0363 µM | 0.0324 µM | CCc1nn(C)c2c1/C=C/c1n[nH]c3cnc(cc13)-c1cc(F)ccc1OCCN(C)C2=O [US20240182487, Compound 62] |
| 0.05 µM | 0.0984 µM | 0.0619 µM | 0.0058 µM | 0.0088 µM | Cn1ncc2c1COCCOc1ccccc1/C=C/c1n[nH]c3cnc-2cc13 [US20240182487, Compound 63] |
| > 10 µM | – | – | – | – | CCc1c2c(nn1C)C(=O)N(C)CCCOc1cnc(OC)cc1-c1cc3c(n[nH]c3cn1)/C=C/2 [US20240182487, Compound 64] |
| 0.14 µM | 0.438 µM | – | 0.0234 µM | 0.0912 µM | Cc1ccc2c(n1)/C=C/c1n[nH]c3cnc(nc13)-c1cnn(C)c1C(C)OCCO2 (configuration not stated) [US20240182487, Compound 65] |
| > 10 µM | – | – | – | – | CCc1c2c(nn1C)C(=O)N(C)CCOc1cnc(OC)cc1-c1cc3c(n[nH]c3cn1)/C=C/2 [US20240182487, Compound 66] |
| 1.72 µM | 1 µM | – | – | 0.112 µM | COC(=O)c1ccc2c(c1)OCCCOc1c(cnn1C)-c1cc3c(n[nH]c3cn1)/C=C/2 [US20240182487, Compound 67] |
| – | 0.159 µM | – | – | 0.0166 µM | COC(=O)c1ccc2c(c1)/C=C/c1n[nH]c3cnc(cc13)-c1cnn(C)c1OCCCO2 [US20240182487, Compound 68] |
| – | – | – | – | 0.0983 µM | COC(=O)c1ccc2c(c1)OCCOCc1c(cnn1C)-c1cc3c(n[nH]c3cn1)/C=C/2 [US20240182487, Compound 69] |
| 0.0022 µM | 0.0059 µM | – | – | 0.0053 µM | CN(C)CCCNC(=O)c1ccc2c(c1)/C=C/c1n[nH]c3cnc(cc13)-c1cnn(C)c1OCCCO2 [US20240182487, Compound 70] |
| 0.0237 µM | 0.0487 µM | – | – | 0.0647 µM | Cn1ncc2c1OCCCOc1ccc(C(=O)N3CCCC3)cc1/C=C/c1n[nH]c3cnc-2cc13 [US20240182487, Compound 72] |
| 0.039 µM | 0.0886 µM | – | – | 0.22 µM | Cn1ncc2c1OCCCOc1cc(C(=O)O)ccc1/C=C/c1n[nH]c3cnc-2cc13 [US20240182487, Compound 73] |
| 0.0028 µM | 0.0057 µM | – | – | 0.0083 µM | CN(C)CCNC(=O)c1ccc2c(c1)OCCCOc1c(cnn1C)-c1cc3c(n[nH]c3cn1)/C=C/2 [US20240182487, Compound 74] |
| 0.165 µM | 0.938 µM | – | – | 0.184 µM | COC(=O)c1ccc2c(c1)/C=C/c1n[nH]c3cnc(cc13)-c1cnn(C)c1COCCO2 [US20240182487, Compound 75] |
| 0.0012 µM | – | – | – | 0.0031 µM | CN1CCC(CNC(=O)c2ccc3c(c2)/C=C/c2n[nH]c4cnc(cc24)-c2cnn(C)c2OCCCO3)CC1 [US20240182487, Compound 76] |
| 0.0579 µM | – | – | – | 0.172 µM | CC(C)NC(=O)c1ccc2c(c1)OCCCOc1c(cnn1C)-c1cc3c(n[nH]c3cn1)/C=C/2 [US20240182487, Compound 77] |
| 0.0029 µM | 0.0062 µM | – | – | 0.0106 µM | CN1CCC(NC(=O)c2ccc3c(c2)OCCCOc2c(cnn2C)-c2cc4c(n[nH]c4cn2)/C=C/3)CC1 [US20240182487, Compound 78] |
| 0.0054 µM | 0.0098 µM | – | – | 0.012 µM | CN1CC[C@@H](NC(=O)c2ccc3c(c2)OCCCOc2c(cnn2C)-c2cc4c(n[nH]c4cn2)/C=C/3)C1 [US20240182487, Compound 82] |

| IC50 [1] | IC50 [2] | IC50 [3] | IC50 [4] | IC50 [5] | SMILES |
| --- | --- | --- | --- | --- | --- |
| 0.006 µM | 0.0112 µM | – | – | 0.0138 µM | CN1CC(NC(=O)c2ccc3c(c2)OCCCOc2c(cnn2C)-c2cc4c(n[nH]c4cn2)/C=C/3)C1 [US20240182487, Compound 83] |
| 0.433 µM | 0.884 µM | – | – | 0.16 µM | CCNC(=O)c1ccc2c(c1)OCCOCc1c(cnn1C)-c1cc3c(n[nH]c3cn1)/C=C/2 [US20240182487, Compound 84] |
| 0.0407 µM | 0.14 µM | – | – | 0.031 µM | CN1CCC(NC(=O)c2ccc3c(c2)OCCOCc2c(cnn2C)-c2cc4c(n[nH]c4cn2)/C=C/3)CC1 [US20240182487, Compound 85] |
| 0.0049 µM | 0.0241 µM | – | – | 0.0088 µM | CNC(=O)c1ccc2c(c1)/C=C/c1n[nH]c3cnc(cc13)-c1cnn(C)c1OCCCO2 [US20240182487, Compound 86] |
| 0.0163 µM | 0.0801 µM | – | – | 0.0172 µM | CN1CC[C@@H](NC(=O)c2ccc3c(c2)OCCOCc2c(cnn2C)-c2cc4c(n[nH]c4cn2)/C=C/3)C1 [US20240182487, Compound 87] |
| 0.0041 µM | 0.0193 µM | – | – | 0.0103 µM | CN1CC[C@H](NC(=O)c2ccc3c(c2)OCCCOc2c(cnn2C)-c2cc4c(n[nH]c4cn2)/C=C/3)C1 [US20240182487, Compound 88] |
| 0.032 µM | 0.158 µM | – | – | – | CCNC(=O)c1ccc2c(c1)/C=C/c1n[nH]c3cnc(cc13)-c1cnn(C)c1COCCO2 [US20240182487, Compound 89] |
| 0.0222 µM | 0.0737 µM | – | – | 0.0086 µM | CN(C)CCNC(=O)c1ccc2c(c1)/C=C/c1n[nH]c3cnc(cc13)-c1cnn(C)c1COCCO2 [US20240182487, Compound 90] |
| 0.0282 µM | 0.0972 µM | – | – | 0.0102 µM | CN(C)CCCNC(=O)c1ccc2c(c1)/C=C/c1n[nH]c3cnc(cc13)-c1cnn(C)c1COCCO2 [US20240182487, Compound 91] |
| 0.0664 µM | 0.271 µM | – | – | 0.0555 µM | Cn1ncc2c1COCCOc1ccc(C(=O)O)cc1/C=C/c1n[nH]c3cnc-2cc13 [US20240182487, Compound 92] |
| 0.0072 µM | 0.0558 µM | – | – | 0.0042 µM | CN1CCC(NC(=O)c2ccc3c(c2)/C=C/c2n[nH]c4cnc(cc24)-c2cnn(C)c2COCCO3)CC1 [US20240182487, Compound 93] |
| 0.0092 µM | 0.101 µM | – | – | 0.0099 µM | CN1CCC(CNC(=O)c2ccc3c(c2)/C=C/c2n[nH]c4cnc(cc24)-c2cnn(C)c2COCCO3)CC1 [US20240182487, Compound 94] |
| 0.0749 µM | 0.0916 µM | – | – | 0.035 µM | Cc1ccc2c(n1)/C=C/c1n[nH]c3cnc(cc13)-c1cnn(C)c1C(C)OCCO2 (configuration not stated) [US20240182487, Compound 95] |
| 0.47 µM | 0.586 µM | – | – | 0.343 µM | CN1CCN(C(=O)c2ccc3c(c2)/C=C/c2n[nH]c4cnc(cc24)-c2cnn(C)c2COCCO3)CC1 [US20240182487, Compound 96] |
| 0.0045 µM | 0.0031 µM | – | – | 0.0034 µM | CN1CCC(NC(=O)c2ccc3c(c2)/C=C/c2n[nH]c4cnc(cc24)-c2cnn(C)c2OCCCO3)CC1 [US20240182487, Compound 97] |
| 1.11 µM | 1.24 µM | – | – | 0.192 µM | Cc1nc2cc3c(n[nH]c13)/C=C/c1cc(F)ccc1OCCCOc1c-2cnn1C [US20240182487, Compound 98] |
| 0.0255 µM | 0.0335 µM | 0.0502 µM | > 10 µM | – | CN1CCOCCN(c2ccc(F)c(Cl)c2)c2cc3c(n[nH]c3cn2)/C=C/c2cn(C)nc2C1=O [US20240182487, Compound 99] |
| 0.0139 µM | 0.176 µM | – | – | 0.0275 µM | Cn1ncc2c1OCCCOc1ccc(F)cc1/C=C/c1n[nH]c3cnc-2cc13 [US20240182487, Compound 100] |
